In patent publication US8293732B2, “Antibacterial quinoline derivatives” (Janssen Pharmaceutica N.V., priority 2006, dated 2012):
In brackets after ≈: the same amount, converted by molar mass.

Assays:
Type in all cases: cell-based
M. Smegmatis (ATCC607) = assay: In-vitro anti-bacterial activity against strain M. Smegmatis ATCC607; conditions: 90% inhibitory concentration for bacterial growth, 37° C., Alamar Blue fluorescence; for IC90 values MSM 1 ATCC607: 48 hours; for IC90: Mycolicibacterium smegmatis, ATCC607, 48 h, read-out: IC90 values MSM 1 ATCC607
Experimental: Flat-bottom, sterile 96-well plastic microtiter plates were filled with 180 μl of sterile deionized water, supplemented with 0.25% BSA. Subsequently, stock solutions (7.8× final test concentration) of compounds were added in 45 μl volumes to a series of duplicate wells in column 2 so as to allow evaluation of their effects on bacterial growth. Serial five-fold dilutions (45 μl in 180 μl) were made directly in the microtiter plates from column 2 to 11 using a customised robot system (Zymark Corp., Hopkinton, Mass.). Pipette tips were changed after every 3 dilutions to minimize pipetting errors with high hydrophobic compounds. Untreated control samples with (column 1) and without (column 12) inoculum were included in each microtiter plate. Approximately 250 CFU per well of bacteria inoculum, in a volume of 100 μl in 2.8× Mueller-Hinton broth medium, was added to the rows A to H, except column 12. The same volume of broth medium without inoculum was added to column 12 in row A to H. The cultures were incubated at 37° C. for 48 hours in a humidified 5% CO2 atmosphere (incubator with open air valve and continuous ventilation). At the end of incubation, two days after inoculation, the bacterial growth was quantitated fluorometrically. Therefore Alamar Blue (10×) was added to all wells in a volume of 20 μl and plates were incubated for another 2 hours at […]
The fluorescence was read in a computer-controlled fluorometer (Cytofluor, Biosearch) at an excitation wavelength of 530 nm and an emission wavelength of 590 nm (gain 30).
(§1) STA 29213 means Staphylococcus aureus (ATCC29213); SPN 6305 means Streptococcus pneumoniae (ATCC6305); MSM 607 means M. Smegmatis (ATCC607); ATCC means […].

[1] = tested on: Staphylococcus aureus (ATCC29213); assay: In-vitro anti-bacterial microtitre plate assay, IC90 determination (STA 1 B29213); conditions: 90% inhibitory concentration for bacterial growth, 37° C., resazurin fluorescence; for IC90: Staphylococcus aureus, ATCC29213, 24 h; for IC90 values STA 1 B29213: 24 hours
Experimental: (§2) The bacteria used in this study were grown overnight in flasks containing 100 ml Mueller-Hinton Broth (Becton Dickinson—cat. no. 275730) in sterile de-ionized water, with shaking, at 37° C. Stocks (0.5 ml/tube) were stored at −70° C. until use. Bacteria titrations were performed in microtiter plates to detect the TCID50, in which the TCID50 represents the dilution that gives rise to bacterial growth in 50% of inoculated cultures.
(§3) In general, an inoculum level of approximately 100 TCID50 was used for susceptibility testing.
(§4) Flat-bottom, sterile 96-well plastic microtiter plates were filled with 180 μl of sterile deionized water, supplemented with 0.25% BSA. Subsequently, stock solutions (7.8× final test concentration) of compounds were added in 45 μl volumes in column 2. Serial five-fold dilutions (45 μl in 180 μl) were made directly in the microtiter plates from column 2 to reach column 11. Untreated control samples with (column 1) and without (column 12) inoculum were included in each microtiter plate. Depending on the bacteria type, approximately 10 to 60 CFU per well of bacteria inoculum (100 TCID50), in a volume of 100 μl in 2.8× Mueller-Hinton broth medium, was added to the rows A to H, except column 12. The same volume of broth medium without inoculum was added to column 12 in row A to H. The cultures were incubated at 37° C. for 24 hours under a normal atmosphere (incubator with open air valve and continuous ventilation). At the end of incubation, one day after inoculation, the bacterial growth was quantitated fluorometrically. Therefore resazurin (0.6 mg/ml) was added in a volume of 20 μl to all wells 3 hours after inoculation, and the plates were re-incubated overnight. A change in colour from blue to pink indicated the growth of bacteria. The fluorescence was read in a computer-controlled fluorometer (Cytofluor Biosearch) at an excitation wavelength of 530 nm and an emission wavelength of 590 nm. The % growth inhibition achieved by the compounds was calculated according to standard methods.
as §1

[2] = tested on: Streptococcus pneumoniae (ATCC6305); assay: In-vitro anti-bacterial microtitre plate assay, IC90 determination (SPN 1 6305); conditions: 90% inhibitory concentration for bacterial growth, 37° C., resazurin fluorescence; for IC90: Streptococcus pneumoniae, ATCC6305, 24 h; for IC90 values SPN 1 6305: 24 hours
Experimental: as §2, §3, §4, §1

Compound | IC90 values MSM 1 ATCC607 (M. Smegmatis (ATCC607)) | IC90 [1] | IC90 values STA 1 B29213 [1] | IC90 (M. Smegmatis (ATCC607)) | IC90 [2] | IC90 values SPN 1 6305 [2]
COc1nc2ccc(Br)cc2cc1C(c1ccoc1)C(O)(CCN(C)C)c1ccccc1 (single isomer, unassigned) [Compound 51] | 1.57 µg/mL (≈ 3.17 µM) | 39.4 µg/mL (≈ 79.4 µM) |  |  |  | 
COc1nc2ccc(Br)cc2cc1C(c1ccoc1)C(O)(CCN(C)C)c1ccccc1 (single isomer, unassigned) [Compound 52] | 0.06 µg/mL (≈ 0.121 µM) |  | 49.54 µg/mL (≈ 100 µM) |  |  | 
COc1nc2ccc(Br)cc2cc1C(c1ccccc1)C(O)(CCCCCN(C)C)c1cccc(-c2ccccc2)c1 (single isomer, unassigned) [Compound 36] | 1.76 µg/mL (≈ 2.82 µM) |  | 1.97 µg/mL (≈ 3.16 µM) |  |  | 
COc1nc2ccc(Br)cc2cc1C(c1ccccc1)C(O)(CCCCN1CCCCC1)COCc1ccccc1 (single isomer, unassigned) [Compound 26] |  | 2 µg/mL (≈ 3.24 µM) |  | 2 µg/mL (≈ 3.24 µM) | 2 µg/mL (≈ 3.24 µM) | 
COc1nc2ccc(Br)cc2cc1C(c1ccccc1)C(O)(CCCCN(C)C)c1cccc(-c2ccc(Cl)cc2)c1 (single isomer, unassigned) [Compound 33] |  |  | 2.04 µg/mL (≈ 3.17 µM) | 2.04 µg/mL (≈ 3.17 µM) |  | 1.82 µg/mL (≈ 2.83 µM)
COc1nc2ccc(Br)cc2cc1C(c1ccccc1)C(O)(CCCCN(C)C)c1cccc(/C=C/c2ccccc2)c1 (single isomer, unassigned) [Compound 55] | 1.792 µg/mL (≈ 2.82 µM) |  | 2.01 µg/mL (≈ 3.16 µM) |  |  | 0.898 µg/mL (≈ 1.41 µM)
COc1nc2ccc(Br)cc2cc1C(c1ccccc1)C(O)(CCCCN(C)C)c1cccc(/C=C/c2ccccc2)c1 (stereo not drawn) [Compound 46] | 2.01 µg/mL (≈ 3.16 µM) |  | 2.01 µg/mL (≈ 3.16 µM) |  |  | 
COc1nc2ccc(Br)cc2cc1C(c1ccccc1)C(O)(CCCCN(C)C)c1cccc(-c2ccc(Cl)cc2)c1 (single isomer, unassigned) [Compound 34] | 1.29 µg/mL (≈ 2 µM) |  | 0.91 µg/mL (≈ 1.41 µM) |  |  | 0.72 µg/mL (≈ 1.12 µM)
COc1nc2ccc(Br)cc2cc1C(c1ccc(Cl)cc1)C(O)(CCCCN1CCN(C)CC1)COc1ccccc1 (single isomer, unassigned) [Compound 21] | 2.1 µg/mL (≈ 3.22 µM) |  | 2.1 µg/mL (≈ 3.22 µM) |  |  | 2.6 µg/mL (≈ 3.98 µM)
COc1nc2ccc(Br)cc2cc1C(c1ccoc1)C(O)(CCc1ccc(F)cc1)CCN(C)C (single isomer, unassigned) [Compound 54] | 1.92 µg/mL (≈ 3.55 µM) |  | 8.58 µg/mL (≈ 15.8 µM) |  |  | 
COc1ccc(-c2cccc(C(O)(CCCCN(C)C)C(c3ccccc3)c3cc4cc(Br)ccc4nc3OC)c2)cc1 (single isomer, unassigned) [Compound 39] | 2.02 µg/mL (≈ 3.16 µM) |  | 2.02 µg/mL (≈ 3.16 µM) |  |  | 2.02 µg/mL (≈ 3.16 µM)
COc1nc2ccccc2cc1C(c1ccc(-c2ccoc2)cc1)C(O)(CCCCN(C)C)c1ccc2ccccc2c1 (single isomer, unassigned) [Compound 12] |  | 1.8 µg/mL (≈ 3.15 µM) |  | 1.8 µg/mL (≈ 3.15 µM) | 2 µg/mL (≈ 3.5 µM) | 
COc1nc2ccc(Br)cc2cc1C(c1ccccc1)C(O)(CCCCN1CCN(C)CC1)COc1ccccc1 (single isomer, unassigned) [Compound 19] | 2.0 µg/mL (≈ 3.23 µM) |  | 4.4 µg/mL (≈ 7.11 µM) |  |  | 2.5 µg/mL (≈ 4.04 µM)
COc1nc2ccccc2cc1C(c1ccc(-c2cnc3ccccc3c2)cc1)C(O)(CCCCN(C)C)c1ccc2ccccc2c1 (single isomer, unassigned) [Compound 50] | 22.42 µg/mL (≈ 35.5 µM) |  | 25.15 µg/mL (≈ 39.8 µM) |  |  | 
COc1nc2ccc(Br)cc2cc1C(c1ccccc1)C(O)(CCCCN(C)C)c1cccc(/C=C/c2ccccc2)c1 (stereo not drawn) [Compound 44] | 0.90 µg/mL (≈ 1.42 µM) | 1.79 µg/mL (≈ 2.82 µM) |  |  |  | 
COc1nc2ccccc2cc1C(c1ccc(-c2cccs2)cc1)C(O)(CCCCN(C)C)c1ccc2ccccc2c1 (single isomer, unassigned) [Compound 14] |  | 1.9 µg/mL (≈ 3.24 µM) |  | 1.9 µg/mL (≈ 3.24 µM) | 2.3 µg/mL (≈ 3.92 µM) | 
COc1nc2ccccc2cc1C(c1cccc(-c2ccncc2)c1)C(O)(CCCCN(C)C)c1ccc2ccccc2c1 (single isomer, unassigned) [Compound 8] |  |  | 9.2 µg/mL (≈ 15.8 µM) | 1.8 µg/mL (≈ 3.09 µM) | 1.8 µg/mL (≈ 3.09 µM) | 
COc1nc2ccc(Br)cc2cc1C(c1ccccc1)C(O)(CCCCN(C)C)c1cccc(/C=C/c2ccccc2)c1 (single isomer, unassigned) [Compound 41] | 0.40 µg/mL (≈ 0.629 µM) | 2.01 µg/mL (≈ 3.16 µM) |  |  |  | 2.01 µg/mL (≈ 3.16 µM)
COc1nc2ccc(Br)cc2cc1C(c1ccccc1)C(O)(CCCCCN(C)C)c1cccc(-c2ccccc2)c1 (single isomer, unassigned) [Compound 35] |  | 1.97 µg/mL (≈ 3.16 µM) |  | 1.76 µg/mL (≈ 2.82 µM) |  | 
COc1nc2ccccc2cc1C(c1ccc(-c2ccncc2)cc1)C(O)(CCCCN(C)C)c1ccc2ccccc2c1 (single isomer, unassigned) [Compound 43] | 0.37 µg/mL (≈ 0.636 µM) |  | 4.60 µg/mL (≈ 7.91 µM) |  |  | 
COc1nc2ccc(Br)cc2cc1C(c1ccccc1)C(O)(CCCCN(C)C)c1cccc(/C=C/c2ccccc2)c1 (stereo not drawn) [Compound 45] | 2.01 µg/mL (≈ 3.16 µM) |  | 2.01 µg/mL (≈ 3.16 µM) |  |  | 
COc1nc2ccc(Br)cc2cc1C(c1ccccc1)C(O)(CCCCN(C)C)c1cccc(/C=C/c2ccccc2)c1 (stereo not drawn) [Compound 47] | 2.01 µg/mL (≈ 3.16 µM) |  | 2.01 µg/mL (≈ 3.16 µM) |  |  | 
COc1nc2ccccc2cc1C(c1ccc(-c2cccs2)cc1)C(O)(CCCCN(C)C)c1ccc2ccccc2c1 (single isomer, unassigned) [Compound 15] |  |  | 1.9 µg/mL (≈ 3.24 µM) |  |  | 2.3 µg/mL (≈ 3.92 µM)
COc1nc2ccccc2cc1C(c1ccc(-c2cnc3ccccc3c2)cc1)C(O)(CCCCN(C)C)c1ccc2ccccc2c1 (single isomer, unassigned) [Compound 49] | 2.00 µg/mL (≈ 3.17 µM) |  | 2.00 µg/mL (≈ 3.17 µM) |  |  | 
COc1nc2ccc(Br)cc2cc1C(c1ccccc1)C(O)(CCCCCN(C)C)c1cccc(/C=C/c2ccccc2)c1 (single isomer, unassigned) [Compound 37] |  | 2.05 µg/mL (≈ 3.16 µM) |  | 1.63 µg/mL (≈ 2.51 µM) |  | 
COc1nc2ccc(Br)cc2cc1C(c1ccccc1)C(O)(CCCCN(C)C)c1cccc(-c2ccc(C)cc2)c1 (single isomer, unassigned) [Compound 42] | 0.79 µg/mL (≈ 1.27 µM) |  | 2.21 µg/mL (≈ 3.54 µM) |  |  | 
